Results taken from US6569846B1, “Palladium-substituted bacteriochlorophyll derivatives and use thereof” (Yeda Research and Development Co. Ltd., priority 1998, dated 2003).

Tested on: M2R mouse melanoma cells
Experiment: Phototoxicity on M2R cells (Example 10, [3H]-thymidine incorporation)
Format: cell-based
Conditions: pigments dissolved directly in culture medium containing 10% serum
Experimental: The diluted pigments were added and the cells were incubated in the dark for four hours at 37° C. Prior to illumination, the cells were washed once and replaced with fresh culture medium. The plates were then illuminated from the bottom for 10 minutes at room temperature and placed in the culture incubator at 37° C. in the dark. […] The following control systems were used: Dark control—untreated cells kept in the dark; Light control—cells not treated with sensitizer that were illuminated; Dark toxicity—cells treated with pigment but kept in the dark.

Pd-Bacteriopheophorbide a ethyl ester [Pd-BPheid-ethyl ester, reference compound]
concentration up to which not active at all (highest concentration tested): > 1 µM
